{"source": "ChEMBL document CHEMBL1201862", "about": "“PubChem BioAssay data set” (2004)", "key": {"[1]": {"biological_target": "Tyrosine-protein kinase ABL1 (Homo sapiens, UniProt P00519)", "sequence (P00519 whole entry)": "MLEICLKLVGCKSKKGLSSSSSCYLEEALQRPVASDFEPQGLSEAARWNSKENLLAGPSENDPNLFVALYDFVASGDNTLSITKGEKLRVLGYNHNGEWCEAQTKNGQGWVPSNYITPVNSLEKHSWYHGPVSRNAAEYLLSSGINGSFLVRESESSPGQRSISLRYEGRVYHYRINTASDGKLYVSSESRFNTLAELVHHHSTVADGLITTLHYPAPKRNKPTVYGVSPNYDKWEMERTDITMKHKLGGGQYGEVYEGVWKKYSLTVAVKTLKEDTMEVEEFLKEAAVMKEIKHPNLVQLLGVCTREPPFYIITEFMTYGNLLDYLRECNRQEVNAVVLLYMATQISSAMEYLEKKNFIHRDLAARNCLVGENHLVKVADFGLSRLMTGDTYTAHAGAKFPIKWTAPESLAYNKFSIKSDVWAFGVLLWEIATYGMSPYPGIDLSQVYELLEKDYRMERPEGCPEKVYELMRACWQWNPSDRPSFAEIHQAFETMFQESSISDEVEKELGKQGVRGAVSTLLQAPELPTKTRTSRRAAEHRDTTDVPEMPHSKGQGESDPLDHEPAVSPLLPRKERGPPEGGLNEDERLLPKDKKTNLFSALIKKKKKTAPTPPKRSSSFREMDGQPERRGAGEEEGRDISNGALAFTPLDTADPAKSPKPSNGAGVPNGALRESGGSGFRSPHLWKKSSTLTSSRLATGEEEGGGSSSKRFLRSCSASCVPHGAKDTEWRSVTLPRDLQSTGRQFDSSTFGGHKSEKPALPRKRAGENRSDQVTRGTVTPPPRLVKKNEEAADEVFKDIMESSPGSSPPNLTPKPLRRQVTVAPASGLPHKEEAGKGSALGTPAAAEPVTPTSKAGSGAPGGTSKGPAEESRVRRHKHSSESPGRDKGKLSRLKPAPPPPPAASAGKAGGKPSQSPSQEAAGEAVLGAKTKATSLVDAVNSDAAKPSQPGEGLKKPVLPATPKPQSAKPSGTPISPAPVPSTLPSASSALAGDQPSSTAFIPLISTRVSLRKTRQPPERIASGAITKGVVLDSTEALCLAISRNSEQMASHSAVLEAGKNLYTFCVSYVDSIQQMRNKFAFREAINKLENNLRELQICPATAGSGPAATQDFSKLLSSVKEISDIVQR", "assay_type": "functional"}, "[2]": {"biological_target": "Platelet-derived growth factor receptor beta (Homo sapiens, UniProt P09619)", "assay_type": "functional"}, "[3]": {"biological_target": "G protein-coupled receptor kinase 5 (Homo sapiens, UniProt P34947)", "sequence (P34947 whole entry)": "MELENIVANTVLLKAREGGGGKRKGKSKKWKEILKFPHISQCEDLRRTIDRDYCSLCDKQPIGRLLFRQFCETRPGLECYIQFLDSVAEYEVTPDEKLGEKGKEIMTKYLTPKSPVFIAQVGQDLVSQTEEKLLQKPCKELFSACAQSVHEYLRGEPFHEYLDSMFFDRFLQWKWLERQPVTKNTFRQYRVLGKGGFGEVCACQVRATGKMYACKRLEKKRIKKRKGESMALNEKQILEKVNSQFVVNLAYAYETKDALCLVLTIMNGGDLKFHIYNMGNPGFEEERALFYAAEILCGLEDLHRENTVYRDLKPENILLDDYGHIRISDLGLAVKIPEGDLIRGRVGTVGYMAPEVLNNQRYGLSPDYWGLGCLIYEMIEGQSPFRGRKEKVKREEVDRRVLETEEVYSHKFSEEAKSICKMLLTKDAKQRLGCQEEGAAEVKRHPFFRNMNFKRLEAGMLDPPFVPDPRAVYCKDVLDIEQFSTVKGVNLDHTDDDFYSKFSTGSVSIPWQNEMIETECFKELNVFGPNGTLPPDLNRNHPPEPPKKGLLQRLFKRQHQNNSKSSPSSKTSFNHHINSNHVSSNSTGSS", "test": "Navigating the Kinome. Panel member name: GPRK5", "assay_type": "functional"}, "[4]": {"biological_target": "Tyrosine-protein kinase JAK2 (Homo sapiens, UniProt O60674)", "assay_type": "functional"}, "[5]": {"biological_target": "Serine/threonine-protein kinase D3 (Homo sapiens, UniProt O94806)", "assay_type": "functional"}, "[6]": {"biological_target": "High affinity nerve growth factor receptor (Homo sapiens, UniProt P04629)", "assay_type": "functional"}, "[7]": {"biological_target": "Mitogen-activated protein kinase 9 (Homo sapiens, UniProt P45984)", "assay_type": "functional"}, "[8]": {"biological_target": "Dual specificity protein kinase CLK4 (Homo sapiens, UniProt Q9HAZ1)", "sequence (Q9HAZ1 whole entry)": "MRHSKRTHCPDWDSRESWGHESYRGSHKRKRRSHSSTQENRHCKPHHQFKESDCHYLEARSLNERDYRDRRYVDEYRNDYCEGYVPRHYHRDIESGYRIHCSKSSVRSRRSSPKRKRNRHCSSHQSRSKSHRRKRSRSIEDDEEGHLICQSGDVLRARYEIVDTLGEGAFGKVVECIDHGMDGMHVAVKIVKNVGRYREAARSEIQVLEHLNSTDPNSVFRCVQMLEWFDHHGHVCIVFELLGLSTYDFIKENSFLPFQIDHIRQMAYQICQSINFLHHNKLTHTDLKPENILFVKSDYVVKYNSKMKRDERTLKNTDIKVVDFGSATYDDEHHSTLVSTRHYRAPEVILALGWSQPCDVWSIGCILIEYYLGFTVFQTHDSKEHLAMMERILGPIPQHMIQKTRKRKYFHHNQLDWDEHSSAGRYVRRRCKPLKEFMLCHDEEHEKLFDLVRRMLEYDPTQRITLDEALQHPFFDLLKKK", "assay_type": "functional"}, "[9]": {"biological_target": "Cyclin-dependent kinase 9 (Homo sapiens, UniProt P50750)", "assay_type": "functional"}, "[10]": {"biological_target": "Cyclin-dependent kinase 8 (Homo sapiens, UniProt P49336)", "test": "Navigating the Kinome. Panel member name: CDK8", "assay_type": "functional"}, "[11]": {"biological_target": "Tyrosine-protein kinase Fyn (Homo sapiens, UniProt P06241)", "assay_type": "functional"}, "Focal adhesion kinase 1": {"biological_target": "Focal adhesion kinase 1 (Homo sapiens, UniProt Q05397)", "assay_type": "functional"}, "[12]": {"biological_target": "Vascular endothelial growth factor receptor 2 (Homo sapiens, UniProt P35968)", "sequence (P35968 whole entry)": "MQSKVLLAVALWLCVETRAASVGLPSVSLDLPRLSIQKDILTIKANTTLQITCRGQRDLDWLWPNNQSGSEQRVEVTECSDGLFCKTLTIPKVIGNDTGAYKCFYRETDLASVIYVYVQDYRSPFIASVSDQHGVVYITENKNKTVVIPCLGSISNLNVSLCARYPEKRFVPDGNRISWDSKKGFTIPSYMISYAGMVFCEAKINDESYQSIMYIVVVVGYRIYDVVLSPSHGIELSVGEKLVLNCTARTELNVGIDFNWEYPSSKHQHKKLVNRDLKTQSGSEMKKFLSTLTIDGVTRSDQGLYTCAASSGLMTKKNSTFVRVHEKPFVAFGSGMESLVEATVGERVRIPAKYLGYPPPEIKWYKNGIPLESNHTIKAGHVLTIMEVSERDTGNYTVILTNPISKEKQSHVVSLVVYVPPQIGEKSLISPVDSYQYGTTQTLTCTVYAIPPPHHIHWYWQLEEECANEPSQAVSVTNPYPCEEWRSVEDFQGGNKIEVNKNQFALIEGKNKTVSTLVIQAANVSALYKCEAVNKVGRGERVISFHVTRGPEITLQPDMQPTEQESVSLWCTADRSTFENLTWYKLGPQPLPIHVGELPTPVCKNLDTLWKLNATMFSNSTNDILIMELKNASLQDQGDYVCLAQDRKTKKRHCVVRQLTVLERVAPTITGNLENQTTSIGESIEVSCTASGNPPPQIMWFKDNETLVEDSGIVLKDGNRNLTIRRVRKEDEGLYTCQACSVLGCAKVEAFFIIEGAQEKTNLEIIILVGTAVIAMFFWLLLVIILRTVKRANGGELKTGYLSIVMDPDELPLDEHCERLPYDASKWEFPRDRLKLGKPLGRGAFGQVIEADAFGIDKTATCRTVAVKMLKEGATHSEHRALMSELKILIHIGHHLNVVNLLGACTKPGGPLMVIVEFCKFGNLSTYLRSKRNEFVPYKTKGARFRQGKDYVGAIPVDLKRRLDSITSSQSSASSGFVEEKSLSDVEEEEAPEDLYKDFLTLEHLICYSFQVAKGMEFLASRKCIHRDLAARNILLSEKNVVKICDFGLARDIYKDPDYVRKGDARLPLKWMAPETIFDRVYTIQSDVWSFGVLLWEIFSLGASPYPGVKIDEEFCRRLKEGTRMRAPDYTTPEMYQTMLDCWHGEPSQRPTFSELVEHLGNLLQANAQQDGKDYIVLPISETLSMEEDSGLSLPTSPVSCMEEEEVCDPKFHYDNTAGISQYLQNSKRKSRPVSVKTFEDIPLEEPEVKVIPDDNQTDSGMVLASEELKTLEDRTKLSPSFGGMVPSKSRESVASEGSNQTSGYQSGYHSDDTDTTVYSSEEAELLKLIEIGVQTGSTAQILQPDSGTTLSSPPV", "assay_type": "functional"}, "[13]": {"biological_target": "Calcium/calmodulin-dependent protein kinase type II subunit alpha (Homo sapiens, UniProt Q9UQM7)", "test": "Navigating the Kinome. Panel member name: CAMK2A", "assay_type": "functional"}, "[14]": {"biological_target": "Dual specificity mitogen-activated protein kinase kinase 1 (Homo sapiens, UniProt Q02750)", "sequence (Q02750 whole entry)": "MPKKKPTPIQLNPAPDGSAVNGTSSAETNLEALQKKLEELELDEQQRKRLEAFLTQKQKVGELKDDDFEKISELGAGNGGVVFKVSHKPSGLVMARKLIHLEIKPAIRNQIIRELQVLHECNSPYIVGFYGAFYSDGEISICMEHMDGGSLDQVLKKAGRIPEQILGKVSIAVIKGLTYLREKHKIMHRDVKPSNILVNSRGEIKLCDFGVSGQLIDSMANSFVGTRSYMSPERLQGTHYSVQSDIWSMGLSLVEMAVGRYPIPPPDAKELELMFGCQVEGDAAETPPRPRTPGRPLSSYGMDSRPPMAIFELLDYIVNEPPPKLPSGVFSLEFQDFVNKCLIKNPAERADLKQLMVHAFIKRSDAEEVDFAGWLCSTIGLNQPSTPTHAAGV", "test": "Navigating the Kinome. Panel member name: MAP2K1", "assay_type": "functional"}, "[15]": {"biological_target": "5'-AMP-activated protein kinase catalytic subunit alpha-1 (Homo sapiens, UniProt Q13131)", "assay_type": "functional"}, "[16]": {"biological_target": "Serine/threonine-protein phosphatase PP1-alpha catalytic subunit (Homo sapiens, UniProt P62136)", "test": "PP1 phosphatase inhibitors, dose response, biochemical, fluorescence (AID 2403);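 note: phosphatase turnover of OMFP into fluorescent 3-O-methylfluorescein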"}, "[17]": {"biological_target": "T1, Serine/threonine-protein phosphatase (Homo sapiens, UniProt Q9BPW0)", "T1 sequence (Q9BPW0 whole entry)": "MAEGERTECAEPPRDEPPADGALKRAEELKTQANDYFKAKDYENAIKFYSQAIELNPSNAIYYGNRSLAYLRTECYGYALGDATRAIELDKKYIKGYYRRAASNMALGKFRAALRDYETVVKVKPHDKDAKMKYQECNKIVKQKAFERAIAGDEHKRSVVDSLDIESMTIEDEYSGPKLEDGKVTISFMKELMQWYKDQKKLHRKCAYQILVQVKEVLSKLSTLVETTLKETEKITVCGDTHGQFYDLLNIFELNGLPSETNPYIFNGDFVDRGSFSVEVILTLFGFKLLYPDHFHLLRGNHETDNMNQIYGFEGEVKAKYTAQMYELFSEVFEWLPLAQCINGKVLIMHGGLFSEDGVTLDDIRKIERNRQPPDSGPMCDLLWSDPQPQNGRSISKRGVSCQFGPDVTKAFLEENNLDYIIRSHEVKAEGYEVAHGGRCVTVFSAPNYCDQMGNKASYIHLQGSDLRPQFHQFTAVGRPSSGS", "test": "Counterscreen for inhibitors of PP1: fluorescence-based biochemical high throughput dose response assay to identify inhibitors of Protein Phosphatase 5 (PP5). [Related pubchem assays: 2034 (Summary (PP5 inhibitors)), 1987 (PP5 inhibitors in singlate), 2235 (PP1 inhibitors in singlate)]"}, "Protein RecA": {"biological_target": "T2, Protein RecA (Mycobacterium tuberculosis, UniProt P9WHJ3)", "T2 sequence (P9WHJ3 whole entry)": "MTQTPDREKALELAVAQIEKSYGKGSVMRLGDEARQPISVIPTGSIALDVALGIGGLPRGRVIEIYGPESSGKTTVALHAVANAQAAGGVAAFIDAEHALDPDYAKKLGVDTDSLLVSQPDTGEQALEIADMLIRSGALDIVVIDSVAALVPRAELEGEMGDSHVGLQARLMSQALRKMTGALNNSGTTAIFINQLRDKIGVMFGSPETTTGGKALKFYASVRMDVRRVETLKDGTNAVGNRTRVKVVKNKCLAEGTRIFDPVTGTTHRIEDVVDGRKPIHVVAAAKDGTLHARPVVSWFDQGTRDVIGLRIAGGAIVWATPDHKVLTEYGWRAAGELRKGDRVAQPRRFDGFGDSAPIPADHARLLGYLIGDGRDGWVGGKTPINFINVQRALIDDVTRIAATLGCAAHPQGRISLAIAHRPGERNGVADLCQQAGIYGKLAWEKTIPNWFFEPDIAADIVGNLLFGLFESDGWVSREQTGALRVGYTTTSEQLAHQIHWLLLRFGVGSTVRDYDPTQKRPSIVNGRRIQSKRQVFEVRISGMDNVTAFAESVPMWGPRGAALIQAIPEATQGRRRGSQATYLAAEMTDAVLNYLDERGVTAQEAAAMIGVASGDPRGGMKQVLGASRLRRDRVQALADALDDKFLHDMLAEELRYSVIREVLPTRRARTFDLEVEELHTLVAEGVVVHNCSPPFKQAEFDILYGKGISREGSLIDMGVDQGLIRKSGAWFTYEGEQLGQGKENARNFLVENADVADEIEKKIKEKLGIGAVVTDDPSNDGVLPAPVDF", "test": "Fluorescence Cell-Free Homogeneous Dose Retest to Identify Inhibitors of RecA-Intein Splicing Activity. [Related pubchem assays (depositor defined):AID2097, AID2223, AID489010, AID492950]", "assay_type": "functional"}, "[18]": {"biological_target": "T3, Sentrin-specific protease 8 (Homo sapiens, UniProt Q96LD8)", "T3 sequence (Q96LD8 whole entry)": "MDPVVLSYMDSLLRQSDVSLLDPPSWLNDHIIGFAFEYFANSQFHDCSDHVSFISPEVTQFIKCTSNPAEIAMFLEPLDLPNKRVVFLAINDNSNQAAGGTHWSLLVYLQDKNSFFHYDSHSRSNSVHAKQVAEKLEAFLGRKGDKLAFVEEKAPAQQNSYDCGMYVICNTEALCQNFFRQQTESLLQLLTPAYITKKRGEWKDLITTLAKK", "assay_type": "functional"}, "SUMO-activating enzyme [19]": {"biological_target": "T4, SUMO-activating enzyme (Homo sapiens, UniProt Q9UBT2)", "T4 sequence (Q9UBE0 whole entry)": "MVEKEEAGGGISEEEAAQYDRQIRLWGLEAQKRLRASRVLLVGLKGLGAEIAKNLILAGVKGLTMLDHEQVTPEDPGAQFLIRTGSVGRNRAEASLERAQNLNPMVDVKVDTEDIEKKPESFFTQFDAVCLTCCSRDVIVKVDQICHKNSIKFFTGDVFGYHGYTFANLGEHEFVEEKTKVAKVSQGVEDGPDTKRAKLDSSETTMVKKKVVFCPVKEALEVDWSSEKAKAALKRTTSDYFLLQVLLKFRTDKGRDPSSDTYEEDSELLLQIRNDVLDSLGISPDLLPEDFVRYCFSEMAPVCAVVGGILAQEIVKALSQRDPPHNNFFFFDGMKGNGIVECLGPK", "T4 sequence (Q9UBT2 whole entry)": "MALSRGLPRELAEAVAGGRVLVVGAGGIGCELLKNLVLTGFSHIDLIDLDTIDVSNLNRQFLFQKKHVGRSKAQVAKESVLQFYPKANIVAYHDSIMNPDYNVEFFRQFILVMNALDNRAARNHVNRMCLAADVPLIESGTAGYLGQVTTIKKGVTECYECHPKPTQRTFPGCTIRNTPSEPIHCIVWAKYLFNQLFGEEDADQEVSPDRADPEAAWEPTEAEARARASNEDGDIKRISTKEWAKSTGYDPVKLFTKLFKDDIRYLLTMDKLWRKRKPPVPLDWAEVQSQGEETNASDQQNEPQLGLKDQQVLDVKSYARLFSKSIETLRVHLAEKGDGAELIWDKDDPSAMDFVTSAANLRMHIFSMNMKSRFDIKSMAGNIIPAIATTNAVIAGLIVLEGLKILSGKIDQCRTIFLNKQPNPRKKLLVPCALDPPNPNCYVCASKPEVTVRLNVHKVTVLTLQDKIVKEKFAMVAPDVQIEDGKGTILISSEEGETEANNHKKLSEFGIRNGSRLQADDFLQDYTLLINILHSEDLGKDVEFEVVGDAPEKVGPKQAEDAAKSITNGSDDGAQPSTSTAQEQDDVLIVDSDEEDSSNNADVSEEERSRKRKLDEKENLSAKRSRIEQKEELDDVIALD", "test": "inhibitors of in vitro SUMOylation cascade, primary screen, biochemical, HTRF, uHTS (AID 2006)", "assay_type": "protein-complex assay"}, "SUMO-activating enzyme [20]": {"biological_target": "T4, SUMO-activating enzyme", "test": "SUMOylation inhibitor hit validation, confirmation, SUMOylation inhibitor project, biochemical, AlphaScreen (AID 2018)", "assay_type": "functional"}, "[21]": {"biological_target": "T3, Sentrin-specific protease 8", "assay_type": "functional", "remark": "listed apart in the source"}, "[22]": {"test": "HeLa cell cytotoxicity, dose response, cytotoxicity control for MgcRacGAP inhibitor project (AID 624300)", "assay_type": "functional"}}, "note": "The source made the active and inactive calls."}
{"smiles": "Cc1ccc(-c2cc3nc(Br)cnc3[nH]2)cc1", "values": [{"measurement": "Ki", "setting": "[1]", "value": "0.794 µM (active)"}, {"measurement": "Ki", "setting": "[2]", "value": "> 2 µM (inactive)"}, {"measurement": "Ki", "setting": "[3]", "value": "> 3.98 µM (inactive)"}, {"measurement": "Ki", "setting": "[4]", "value": "> 2.51 µM (inactive)"}, {"measurement": "Ki", "setting": "[5]", "value": "> 3.98 µM (inactive)"}, {"measurement": "Ki", "setting": "[6]", "value": "> 3.16 µM (inactive)"}, {"measurement": "Ki", "setting": "[7]", "value": "> 3.98 µM (inactive)"}, {"measurement": "Ki", "setting": "[8]", "value": "0.1 µM (active)"}, {"measurement": "Ki", "setting": "[9]", "value": "> 1.58 µM (inactive)"}, {"measurement": "Ki", "setting": "[10]", "value": "> 3.98 µM (inactive)"}, {"measurement": "Ki", "setting": "[11]", "value": "> 6.31 µM (inactive)"}, {"measurement": "Ki", "setting": "Focal adhesion kinase 1", "value": "> 6.31 µM (inactive)"}, {"measurement": "Ki", "setting": "[12]", "value": "1.26 µM (active)"}, {"measurement": "Ki", "setting": "[13]", "value": "> 7.94 µM (inactive)"}, {"measurement": "Ki", "setting": "[14]", "value": "> 3.16 µM (inactive)"}, {"measurement": "Ki", "setting": "[15]", "value": "3.16 µM (active)"}]}
{"smiles": "CC1(C)C=C2C(=NN(c3ccccc3)C(N)=C2C#N)CO1", "values": [{"measurement": "IC50", "setting": "[16]", "value": "55.8 µM (not active)"}, {"measurement": "IC50", "setting": "[17]", "value": "> 0.828 µM (active)"}, {"measurement": "EC50", "setting": "Protein RecA", "value": "0.297 µM (active)"}, {"measurement": "IC50", "setting": "[18]", "value": "0.0693 µM (active)"}]}
{"smiles": "CC(=O)N(C1=C(Cl)C(=O)c2ccccc2C1=O)c1ccc(C(=O)O)cc1", "values": [{"measurement": "IC50", "setting": "SUMO-activating enzyme [19]", "value": "17.3 µM (active)"}, {"measurement": "IC50", "setting": "SUMO-activating enzyme [20]", "value": "3.77 µM (active)"}, {"measurement": "IC50", "setting": "[21]", "value": "5.99 µM (active)"}, {"measurement": "CC50", "setting": "[22]", "value": "36.1 µM (active)"}]}
